Read-outs that look alike come from different tables or passages of the source.
Experiments:
TcuKam = TcuKam (Thermomonospora curvata, UniProt D1A6K4); experiment: biochemical; format: binding
CacKam = CacKam (Catenulispora acidiphila, UniProt C7Q5P8); experiment: biochemical; format: binding
CarKam = experiment: isothermal titration calorimetry, single-site fit; format: binding, Candidatus Arthromitus sp. SFB-mouse-NYU; conditions: 25 °C, 20 mM Tris pH 7.5, 10 mM magnesium acetate, 250 mM NH4Cl, 10 % glycerol, 6 mM β-mercaptoethanol, no 30S subunit
(UniProt K2DC64) = experiment: biochemical

Compound	Kd (TcuKam)	Kd (CacKam)	Kd (CarKam; read-out: Kd (μM) / SAM)	Kd ((UniProt K2DC64))	Kd (CarKam; read-out: Kd (μM) / SAH)
C[S+](CC[C@H](N)C(=O)O)C[C@H]1O[C@@H](n2cnc3c(N)ncnc32)[C@H](O)[C@@H]1O (stereo partly shown) [SAM]	13 µM	44 µM	24 µM	75 µM	–
Nc1ncnc2c1ncn2[C@@H]1O[C@H](CSCC[C@H](N)C(=O)O)[C@@H](O)[C@H]1O [SAH]	1.9 µM	2.7 µM	–	–	4.1 µM

Source: PMC4122235 (Biochimica et biophysica acta, 2014)
